A word on the IC50: it is the concentration that inhibits the measured activity by half.

The target of this experiment is PARP1 (Homo sapiens, UniProt P09874). The experiment in a line: in vitro PARP1 activity ELISA, recombinant enzyme. In kind it is biochemical.
PARP1, sequence (P09874 2-1014): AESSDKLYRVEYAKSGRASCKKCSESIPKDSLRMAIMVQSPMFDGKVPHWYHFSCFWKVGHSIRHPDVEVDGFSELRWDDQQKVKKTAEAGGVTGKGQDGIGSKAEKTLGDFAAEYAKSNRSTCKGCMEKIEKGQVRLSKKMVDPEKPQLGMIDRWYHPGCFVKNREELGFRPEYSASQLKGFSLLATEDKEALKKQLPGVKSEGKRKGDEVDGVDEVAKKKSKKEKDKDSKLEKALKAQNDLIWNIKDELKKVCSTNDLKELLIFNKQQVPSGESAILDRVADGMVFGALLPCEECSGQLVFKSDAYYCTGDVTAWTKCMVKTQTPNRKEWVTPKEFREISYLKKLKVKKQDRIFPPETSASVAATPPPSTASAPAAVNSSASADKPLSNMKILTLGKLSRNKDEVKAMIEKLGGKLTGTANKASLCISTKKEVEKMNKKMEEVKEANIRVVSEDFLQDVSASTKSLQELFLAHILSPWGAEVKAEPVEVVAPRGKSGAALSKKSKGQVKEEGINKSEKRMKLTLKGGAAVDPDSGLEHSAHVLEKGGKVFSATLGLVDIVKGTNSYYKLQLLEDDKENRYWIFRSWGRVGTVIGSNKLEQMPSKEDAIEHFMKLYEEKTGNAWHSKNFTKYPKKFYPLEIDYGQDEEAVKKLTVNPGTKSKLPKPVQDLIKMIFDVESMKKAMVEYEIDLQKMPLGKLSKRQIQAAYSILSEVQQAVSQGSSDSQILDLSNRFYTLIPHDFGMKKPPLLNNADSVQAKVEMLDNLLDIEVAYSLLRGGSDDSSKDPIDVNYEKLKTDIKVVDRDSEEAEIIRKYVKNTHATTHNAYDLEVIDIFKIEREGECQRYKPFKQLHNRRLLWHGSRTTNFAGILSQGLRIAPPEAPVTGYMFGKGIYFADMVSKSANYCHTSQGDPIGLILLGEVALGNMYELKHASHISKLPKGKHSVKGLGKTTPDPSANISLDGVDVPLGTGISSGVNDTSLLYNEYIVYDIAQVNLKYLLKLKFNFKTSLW

`Cc1ccc2c(=O)[nH]c(-c3ccc(C(C)(C)O)cc3)cn12` [MSC2504877]: the IC50 was 540 nM.

These data come from publication PMC6336890 (Scientific Reports, 2019).
